Laboratory results: ChEMBL document CHEMBL1156187, “Discovery of a selective small-molecule melanocortin-4 receptor agonist with efficacy in a pilot study of sexual dysfunction in humans” (J Med Chem, 2010)

Columns and labels:
Melanocortin receptor 4 [1] = molecular target: T1, Melanocortin receptor 4 (Homo sapiens, UniProt P32245); assay: Agonist activity at human recombinant MC4 receptor expressed in CHO cells by cAMP responsive beta lactamase reporter gene assay; type: functional, cell-based
[2] = Lipophilicity, log D at pH 7.4; type: physicochemical; details: buffer
[3] = Intrinsic clearance in human liver microsome measured per mg of protein; type: ADME; details: liver microsomes
Melanocortin receptor 5 [4] = molecular target: T2, Melanocortin receptor 5 (Homo sapiens, UniProt P33032); assay: Agonist activity at human recombinant MC5 receptor expressed in HEK293 cells assessed as cAMP accumulation by beta lactamase reporter gene assay; type: functional, cell-based
Melanocortin receptor 4 [5] = molecular target: T1, Melanocortin receptor 4; assay: Displacement of [125I]-MT-II from human recombinant MC4 receptor expressed in CHO cells by scintillation counting
[6] = molecular target: T3, Melanocyte-stimulating hormone receptor (Homo sapiens, UniProt Q01726); assay: Agonist activity at human recombinant MC1 receptor expressed in HEK293 cells assessed as cAMP accumulation by enzyme fragment complementation assay; type: functional, cell-based
Target sequence in this assay (Q01726 whole entry, the tested form may be a part): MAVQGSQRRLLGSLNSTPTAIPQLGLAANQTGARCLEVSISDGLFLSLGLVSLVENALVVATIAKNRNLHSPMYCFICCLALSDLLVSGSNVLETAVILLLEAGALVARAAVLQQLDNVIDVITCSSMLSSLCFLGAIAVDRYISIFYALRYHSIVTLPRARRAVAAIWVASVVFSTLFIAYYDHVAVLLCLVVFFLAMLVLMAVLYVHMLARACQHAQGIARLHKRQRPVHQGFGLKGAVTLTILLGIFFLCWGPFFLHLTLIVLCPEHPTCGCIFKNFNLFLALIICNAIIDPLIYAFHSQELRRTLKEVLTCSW

Melanocortin receptor 3 [7] = molecular target: T4, Melanocortin receptor 3 (Homo sapiens, UniProt P41968); assay: Agonist activity at human recombinant MC3 receptor expressed in CHO cells assessed as cAMP accumulation by enzyme fragment complementation assay; type: functional, cell-based
[8] = molecular target: T3, Melanocyte-stimulating hormone receptor; assay: Agonist activity at human recombinant MC1 receptor expressed in HEK293 cells assessed as cAMP accumulation by enzyme fragment complementation assay relative to alpha melanocyte-stimulating hormone; type: functional, cell-based
Target sequence in this assay (Q01726 whole entry, looked up, the tested form may be a part): as the sequence (Q01726 whole entry, the tested form may be a part) above

Melanocortin receptor 5 [9] = molecular target: T2, Melanocortin receptor 5; assay: Agonist activity at human recombinant MC5 receptor expressed in HEK293 cells assessed as cAMP accumulation by beta lactamase reporter gene assay relative to alpha melanocyte-stimulating hormone; type: functional, cell-based
Melanocortin receptor 3 [10] = molecular target: T4, Melanocortin receptor 3; assay: Agonist activity at human recombinant MC3 receptor expressed in CHO cells assessed as cAMP accumulation by enzyme fragment complementation assay relative to […]; type: functional, cell-based

T2 sequence (P33032 whole entry): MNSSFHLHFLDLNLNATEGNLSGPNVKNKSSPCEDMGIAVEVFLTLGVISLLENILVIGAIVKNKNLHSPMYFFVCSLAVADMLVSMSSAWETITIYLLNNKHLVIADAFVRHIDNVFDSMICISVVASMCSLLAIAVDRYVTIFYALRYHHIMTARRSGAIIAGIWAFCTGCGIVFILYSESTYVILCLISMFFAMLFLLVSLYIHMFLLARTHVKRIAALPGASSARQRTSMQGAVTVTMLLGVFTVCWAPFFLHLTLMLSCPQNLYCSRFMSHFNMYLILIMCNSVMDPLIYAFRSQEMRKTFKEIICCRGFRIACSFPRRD
T1 sequence (P32245 whole entry): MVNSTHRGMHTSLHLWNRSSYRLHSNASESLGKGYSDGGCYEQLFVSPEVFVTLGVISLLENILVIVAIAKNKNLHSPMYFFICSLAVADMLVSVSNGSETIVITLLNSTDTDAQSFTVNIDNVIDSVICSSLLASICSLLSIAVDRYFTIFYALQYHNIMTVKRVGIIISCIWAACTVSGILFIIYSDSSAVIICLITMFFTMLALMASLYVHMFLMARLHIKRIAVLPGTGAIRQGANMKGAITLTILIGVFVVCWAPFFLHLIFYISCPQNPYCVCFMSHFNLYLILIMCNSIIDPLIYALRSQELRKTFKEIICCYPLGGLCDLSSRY
T4 sequence (P41968 whole entry, the tested form may be a part): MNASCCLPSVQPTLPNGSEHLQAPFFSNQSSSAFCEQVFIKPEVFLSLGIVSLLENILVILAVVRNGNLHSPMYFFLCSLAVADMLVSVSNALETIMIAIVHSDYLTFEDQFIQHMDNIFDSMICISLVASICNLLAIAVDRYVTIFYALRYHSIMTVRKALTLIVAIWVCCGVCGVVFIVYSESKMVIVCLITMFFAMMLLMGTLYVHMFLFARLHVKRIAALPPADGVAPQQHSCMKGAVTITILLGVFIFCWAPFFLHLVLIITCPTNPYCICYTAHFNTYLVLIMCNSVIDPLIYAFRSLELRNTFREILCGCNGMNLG

SMILES	EC50 (Melanocortin receptor 4 [1]) [nM]	microsomal CLint [3] [µL/min/mg]	also measured
C[C@@H]1CN(C(=O)[C@@H]2CN(C(C)(C)C)C[C@H]2c2ccc(F)cc2F)C[C@H](C)[C@@]1(O)c1ccc(C(F)(F)F)cc1	108	< 7	logD [2]: 4.1
CCN1C[C@@H](C(=O)N2C[C@@H](C)[C@](O)(c3ccccc3)[C@@H](C)C2)[C@H](c2ccc(F)cc2F)C1	85		
CCN1C[C@@H](C(=O)N2C[C@@H](C)[C@](O)(c3ccc(F)cc3F)[C@@H](C)C2)[C@H](c2ccc(F)cc2F)C1	51		
C[C@@H]1CN(C(=O)C2CN(C(C)(C)C)CC2c2ccc(F)cc2F)C[C@H](C)[C@@]1(O)c1ccccc1 (mixture of isomers)	3900		
C[C@@H]1CN(C(=O)[C@H]2CN(c3ncccn3)C[C@@H]2c2ccc(F)cc2F)C[C@H](C)[C@@]1(O)c1ccccc1	243		EC50 (Melanocortin receptor 5 [4]): > 11100 nM; Ki (Melanocortin receptor 4 [5]): 300 nM; EC50 [6]: > 10000 nM; EC50 (Melanocortin receptor 3 [7]): > 26700 nM
CC(C)N1C[C@@H](C(=O)N2C[C@@H](C)[C@](O)(c3ccc(F)c(F)c3)[C@@H](C)C2)[C@H](c2ccc(F)cc2F)C1	257	28	logD [2]: 3.3
CCC[C@@]1(O)[C@H](C)CN(C(=O)[C@@H]2CN(C(C)(C)C)C[C@H]2c2ccc(F)cc2F)C[C@@H]1C	126		Ki (Melanocortin receptor 4 [5]): 844 nM; EC50 [6]: 3610 nM; Emax [8]: 95%; EC50 (Melanocortin receptor 3 [7]): > 24700 nM
CCN1C[C@@H](C(=O)N2C[C@@H](C)[C@](O)(c3cccc(F)c3)[C@@H](C)C2)[C@H](c2ccc(F)cc2F)C1	61	73	EC50 (Melanocortin receptor 5 [4]): 6410 nM; logD [2]: 2.9; Ki (Melanocortin receptor 4 [5]): 355 nM; EC50 [6]: > 8250 nM; EC50 (Melanocortin receptor 3 [7]): > 13500 nM; Emax (Melanocortin receptor 5 [9]): 92%
COCCN1C[C@H](C(=O)N2C[C@@H](C)[C@](O)(c3ccccc3)[C@@H](C)C2)[C@@H](c2ccc(F)cc2F)C1	374	84	logD [2]: 3.1
C[C@@H]1CN(C(=O)[C@H]2CN(c3cccnn3)C[C@@H]2c2ccc(F)cc2F)C[C@H](C)[C@@]1(O)c1ccc(F)cc1	4	310	logD [2]: 3.7
C[C@@H]1CN(C(=O)[C@@H]2CN(C)C[C@H]2c2ccc(F)cc2F)C[C@H](C)[C@@]1(O)c1ccc(F)cc1	365		EC50 (Melanocortin receptor 5 [4]): 15000 nM; Ki (Melanocortin receptor 4 [5]): 346 nM; EC50 [6]: > 6150 nM; EC50 (Melanocortin receptor 3 [7]): > 33400 nM; Emax (Melanocortin receptor 5 [9]): 100%
C[C@@H]1CN(C(=O)[C@@H]2CN(C)C[C@H]2c2ccc(F)cc2F)C[C@H](C)[C@@]1(O)c1ccc(Cl)cc1	130		
C[C@@H]1CN(C(=O)[C@@H]2CNC[C@H]2c2ccc(F)cc2F)C[C@H](C)[C@@]1(O)c1ccc(F)c(F)c1	288	7	
CCN1C[C@@H](C(=O)N2C[C@@H](C)[C@](O)(c3ccc(F)cc3)[C@@H](C)C2)[C@H](c2ccc(F)cc2F)C1	147		
CC(C)(C)N1C[C@@H](C(=O)N2CCC(O)(c3ccccc3)CC2)[C@H](c2ccc(F)cc2F)C1	1170		
CC(C)N1C[C@@H](C(=O)N2C[C@@H](C)[C@](O)(c3cccc(F)c3)[C@@H](C)C2)[C@H](c2ccc(F)cc2F)C1	40	70	logD [2]: 3.2
C[C@@H]1CN(C(=O)[C@@H]2CN(C(C)(C)C)C[C@H]2c2ccc(F)cc2F)C[C@H](C)[C@@]1(O)c1cncnc1	11100		
CCN1C[C@@H](C(=O)N2C[C@@H](C)[C@](O)(c3ccc(F)c(F)c3)[C@@H](C)C2)[C@H](c2ccc(F)cc2F)C1	69		
CCCN1C[C@H](C(=O)N2C[C@@H](C)[C@](O)(c3ccccc3)[C@@H](C)C2)[C@@H](c2ccc(F)cc2F)C1	19		
C[C@@H]1CN(C(=O)[C@@H]2CN(C(C)(C)C)C[C@H]2c2ccc(F)cc2F)C[C@H](C)[C@@]1(O)C1CC1	962	14	logD [2]: 2.2
C[C@@H]1CN(C(=O)[C@@H]2CN(C)C[C@H]2c2ccc(F)cc2F)C[C@H](C)[C@@]1(O)c1ccccc1	717		EC50 (Melanocortin receptor 5 [4]): > 20000 nM; Ki (Melanocortin receptor 4 [5]): 1070 nM; EC50 [6]: > 7810 nM; EC50 (Melanocortin receptor 3 [7]): > 19100 nM

SMILES	EC50 (Melanocortin receptor 4 [1]) [nM]	microsomal CLint [3] [µL/min/mg]	also measured
CC(C)[C@@]1(O)[C@H](C)CN(C(=O)[C@@H]2CN(C(C)(C)C)C[C@H]2c2ccc(F)cc2F)C[C@@H]1C	626		
CC(C)N1C[C@@H](C(=O)N2C[C@@H](C)[C@](O)(c3ccc(Cl)cc3)[C@@H](C)C2)[C@H](c2ccc(F)cc2F)C1	91	34	logD [2]: 3.5
CC(C)N1C[C@@H](C(=O)N2C[C@@H](C)[C@](O)(c3ccc(F)cc3)[C@@H](C)C2)[C@H](c2ccc(F)cc2F)C1	52		
COc1ccc([C@@]2(O)[C@H](C)CN(C(=O)[C@@H]3CN(C(C)(C)C)C[C@H]3c3ccc(F)cc3F)C[C@@H]2C)cc1	53		
C[C@@H]1CN(C(=O)[C@H]2CN(c3cccnn3)C[C@@H]2c2ccc(F)cc2F)C[C@H](C)[C@@]1(O)c1ccccc1	6	243	EC50 (Melanocortin receptor 5 [4]): > 20000 nM; logD [2]: 3.3; Ki (Melanocortin receptor 4 [5]): 10 nM; Emax (Melanocortin receptor 3 [10]): 89%; EC50 [6]: > 3070 nM; EC50 (Melanocortin receptor 3 [7]): 490 nM
CC(C)N1C[C@@H](C(=O)N2C[C@@H](C)[C@](O)(c3ccc(F)cc3F)[C@@H](C)C2)[C@H](c2ccc(F)cc2F)C1	220		
CC(C)[C@@]1(O)[C@H](C)CN(C(=O)[C@H]2CN(c3cccnn3)C[C@@H]2c2ccc(F)cc2F)C[C@@H]1C	89		
C[C@@H]1CN(C(=O)[C@H]2CN(c3ccccn3)C[C@@H]2c2ccc(F)cc2F)C[C@H](C)[C@@]1(O)c1ccccc1	15		EC50 (Melanocortin receptor 5 [4]): 960 nM; Ki (Melanocortin receptor 4 [5]): 79 nM; Emax (Melanocortin receptor 3 [10]): 78%; EC50 [6]: > 16700 nM; EC50 (Melanocortin receptor 3 [7]): 71 nM; Emax (Melanocortin receptor 5 [9]): 29%
C[C@@H]1CN(C(=O)[C@H]2CN(CC3CC3)C[C@@H]2c2ccc(F)cc2F)C[C@H](C)[C@@]1(O)c1ccccc1	81		
C[C@@H]1CN(C(=O)[C@@H]2CNC[C@H]2c2ccc(F)cc2F)C[C@H](C)[C@@]1(O)c1ccc(F)cc1	255	13	logD [2]: 1.8
C[C@@H]1CN(C(=O)[C@@H]2CN(C(C)(C)C)C[C@H]2c2ccc(F)cc2F)C[C@H](C)[C@@]1(O)c1cccnc1	3630		
C[C@@H]1CN(C(=O)[C@H]2CN(C(C)(C)C)C[C@@H]2c2ccc(F)cc2F)C[C@H](C)[C@@]1(O)c1ccccc1	> 10000		
C[C@@H]1CN(C(=O)[C@@H]2CN(C(C)(C)C)C[C@H]2c2ccc(F)cc2F)C[C@H](C)[C@@]1(O)c1cccc(C#N)c1	644		
C[C@@H]1CN(C(=O)[C@H]2CN(c3cccnn3)C[C@@H]2c2ccc(F)cc2F)C[C@H](C)[C@@]1(O)C1CC1	82		Ki (Melanocortin receptor 4 [5]): 172 nM; Emax (Melanocortin receptor 3 [10]): 42%; EC50 [6]: > 16700 nM; EC50 (Melanocortin receptor 3 [7]): 4130 nM
C[C@@H]1CN(C(=O)[C@H]2CN(c3cnccn3)C[C@@H]2c2ccc(F)cc2F)C[C@H](C)[C@@]1(O)c1ccccc1	111		
C[C@@H]1CN(C(=O)[C@@H]2CN(C(C)(C)C)C[C@H]2c2ccc(F)cc2F)C[C@H](C)[C@@]1(O)c1cccc(F)c1	6	52	EC50 (Melanocortin receptor 5 [4]): 1800 nM; logD [2]: 3.3; Ki (Melanocortin receptor 4 [5]): 97 nM; Emax (Melanocortin receptor 3 [10]): 81%; EC50 [6]: > 6470 nM; EC50 (Melanocortin receptor 3 [7]): 570 nM; Emax (Melanocortin receptor 5 [9]): 74%
C[C@@H]1CN(C(=O)[C@H]2CN(c3cncnc3)C[C@@H]2c2ccc(F)cc2F)C[C@H](C)[C@@]1(O)c1ccccc1	117		
CC(C)CN1C[C@H](C(=O)N2C[C@@H](C)[C@](O)(c3ccccc3)[C@@H](C)C2)[C@@H](c2ccc(F)cc2F)C1	73		
C[C@@H]1CN(C(=O)[C@@H]2CNC[C@H]2c2ccc(F)cc2F)C[C@H](C)[C@@]1(O)c1cccc(F)c1	159		
C[C@@H]1CN(C(=O)[C@@H]2CN(C(C)(C)C)C[C@H]2c2ccc(F)cc2F)C[C@H](C)[C@@]1(O)c1ccc(C#N)cc1	347		
C[C@@H]1CN(C(=O)[C@@H]2CN(C(C)(C)C)C[C@H]2c2ccc(F)cc2F)C[C@H](C)[C@@]1(O)c1ccc(F)c(F)c1	15	22	logD [2]: 3.5
